Results published in US20240173333A1, “Treating Alagille Syndrome (ALGS)” (priority 2022, published 2024).
Where two headings read alike, the source gives them in different places. Marks after values point to notes of the source that are not given here.

What was measured:
[1] = system: pediatric patient with genetic confirmation of ALGS
From the text: The ileal bile acid transporter (IBAT) is a regulator of the enterohepatic bile acid circulation (Karpen et al.). Given the central feature of cholestasis in ALGS and the role of IBAT in bile acid homeostasis, IBAT inhibitors may help alleviate symptoms of ALGS. The IBAT inhibitor odevixibat is indicated for treatment of pruritus in patients ≥3 months old with progressive familial intrahepatic cholestasis (PFIC), another pediatric cholestatic liver disease, in the US and for treatment of PFIC in patients aged ≥6 months in the European Union.
The patient was referred to specialist care […]. […] […], a liver biopsy was performed.
During this clinical course, the patient received UDCA (15 mg/kg body weight) and naltrexone (1 mg/kg/day), treatments that were pursued according to German treatment guidelines and following discussions among the care team and with the patient's parents.

[2] = system: patients with Alagille syndrome (ALGS); assay: ASSERT pruritus responders: ObsRO scratching score
From the text: (§2) Treatment with concomitant medications for pruritus was permitted provided the patient was on a stable dosage for ≥4 weeks prior to enrollment that was maintained throughout the study.
(§3) Pruritus responders were defined as patients having a ≥1-point decrease in ObsRO scratching score from baseline to weeks 21-24).

[3] = system: patients with Alagille syndrome (ALGS); assay: ASSERT pruritus responders: caregiver-reported PedsQL
From the text: as §2, §3

[4] = system: patients with Alagille syndrome (ALGS); assay: ASSERT pruritus responders: ObsRO sleep parameters
From the text: as §2, §3

[5] = system: patients with Alagille syndrome (ALGS); assay: Pooled ASSERT and ASSERT-EXT: TEAEs; format: in vivo, human
Experimental: (§1) In the completed 24-week ASSERT study, patients with ALGS with history of significant pruritus and elevated serum BAs were randomized 2:1 to once-daily odevixibat 120 μg/kg or placebo, respectively. Patients who completed ASSERT could enter ASSERT-EXT, an ongoing, 72-week open-label extension study in which all patients receive odevixibat 120 μg/kg/day. This pooled analysis included all odevixibat-treated patients from ASSERT and/or ASSERT-EXT and spans from patients' first dose of odevixibat to a data cut-off of Sep. 9, 2022. Assessments over up to 36 weeks of treatment included change in observer-reported scratching scores and sleep parameters, as well as levels of serum BAs, autotaxin (a proposed meditator of pruritus), and 7 alpha-hydroxy-4-cholesten-3-one (C4; a marker of bile acid synthesis). Safety evaluations included assessment of alanine aminotransferase (ALT), total bilirubin, and treatment-emergent adverse events (TEAEs).

patients with ALGS = details: 6 patients with ALGS; 4 weeks; open-label; cited from earlier work
[6] = system: patients with Alagille syndrome (ALGS); assay: Pooled ASSERT and ASSERT-EXT: serum bile acids, autotaxin, C4; format: in vivo, human
Experimental: as §1

[7] = system: patients with Alagille syndrome (ALGS); assay: ASSERT-EXT open-label extension: ObsRO pruritus response; format: in vivo, human; details: placebo-odevixibat group; weeks 9-12 of ASSERT-EXT; 120 μg/kg/day
Experimental: ASSERT-EXT is a Phase 3, multi-center, open-label extension study designed to evaluate the long-term safety and efficacy of 120 μg/kg/day odevixibat in relieving pruritus in patients with ALGS. Patients who participated in the ASSERT trial (see Example 1) and met eligibility criteria for the ASSERT trial were eligible to participate. The duration of the treatment period is 72 weeks, followed by a 4-week Safety Follow-up Period. Clinic visits occur every 4 to 12 weeks. […]
Day 1 coincided with Week 24 in the ASSERT trial; however, if this was not possible due to logistic issues, patients enrolled in the ASSERT-EXT trial within 28 days of completion of the ASSERT trial. […] Two groups were analyzed up to an interim cut-off date of Sep. […]
Outcomes evaluated include pruritus, serum BAs, sleep, and treatment-emergent adverse events (TEAEs). The Primary Efficacy Endpoint is the change from baseline in scratching through Week 72 as measured by the Albireo ObsRO caregiver instrument.
Itching, Scratching, and Sleep Score. Itching, observed scratching, and sleep disturbance were recorded twice each day via eDiary. […] When logistically feasible, the same parent or caregiver recorded in the eDiary, and changes to the parent or caregiver who is performing the recording should be minimized. […] The caregiver recording in the eDiary was recorded. […]

With `CCCCC1(CCCC)CN(c2ccccc2)c2cc(SC)c(OCC(=O)N[C@@H](C(=O)N[C@@H](CC)C(=O)O)c3ccc(O)cc3)cc2S(=O)(=O)N1` [odevixibat, 1,1-dioxo-3,3-dibutyl-5-phenyl-7-methylthio-8-(N-{(R)-α-[N-((S)-1-carboxypropyl)carbamoyl]-4-hydroxybenzyl}carbamoylmethoxy)-2,3,4,5-tetrahydro-1,2,5-benzothiadiazepine] the “effect of dosage change on sBAs” value ([1]; 30 μg/kg/day, September to October 2021) was “associated with an increase in sBAs”, the “drop in sBAs” value ([1]; Apr. 27, 2021 to May 31, 2021, 120 μg/kg/day started May 19, 2021) was “approximately 90%” and the “sBAs after start of odevixibat” value ([1]; May 31, 2021, from 700 μmol/L on Apr. 27, 2021, 120 μg/kg/day) was 69 µmol/L. For the same compound, the “bowel movements improved after” value ([1]; after starting odevixibat) was 1 week, the “pruritus almost entirely disappeared within” value ([1]; after starting odevixibat) was no more than 2 weeks and the “pruritus stopped completely after” value ([1]; after starting odevixibat) was 8 months. The “effect of dosage change on sBAs” value ([1]; back to 120 μg/kg/day in mid-December) was “corresponded with a drop in sBAs”, the adverse events ([1]; in vivo) was “did not experience any adverse events” and the “sBA levels reached the normal range after” value ([1]; treatment duration) was 8 months. The “Scratching score, Mean (SE) Change From Baseline” value ([2]; baseline to weeks 21-24) was −2.0 (0.1), the “Scratching score, Baseline Mean (SE)” value ([2]; n=28) was 2.8 (0.1) and the “Scratching score, Week 24 Mean (SE)” value ([2]; weeks 21-24, n=28) was 0.9 (0.1). For the same compound, the “PedsQL total score, Baseline Mean (SE)” value ([3]; n=24, range 0-100) was 68 (3), the “PedsQL total score, Mean (SE) Change From Baseline” value ([3]; to week 24, n=23) was 16 (4)^c and the “PedsQL total score, Week 24 Mean (SE)” value ([3]; week 24, n=25) was 83 (2). For the same compound, the “Days seeing blood due to scratching, Baseline Mean (SE)” value ([4]; n=28) was 35 (6) %, the “Days sleeping with caregiver, Baseline Mean (SE)” value ([4]; n=28) was 40 (9) % and the “Days with help falling asleep, Baseline Mean (SE)” value ([4]; n=28) was 59 (8) %. The “Days with soothing, Baseline Mean (SE)” value ([4]; n=28) was 68 (8) %, the “Daytime tiredness, Baseline Mean (SE)” value ([4]; n=28, scale 0-4) was 2.2 (0.2) and the “Days seeing blood due to scratching, Mean (SE) Change From Baseline” value ([4]; to weeks 21-24) was −30 (5) %. For the same compound, the “Days sleeping with caregiver, Mean (SE) Change From Baseline” value ([4]; to weeks 21-24) was −34 (8) %, the “Days with help falling asleep, Mean (SE) Change From Baseline” value ([4]; to weeks 21-24) was −44 (8) % and the “Days with soothing, Mean (SE) Change From Baseline” value ([4]; to weeks 21-24) was −53 (8) %. For the same compound, the “Days seeing blood due to scratching, Week 24 Mean (SE)” value ([4]; weeks 21-24, n=27) was 5 (2) %, the “Days sleeping with caregiver, Week 24 Mean (SE)” value ([4]; weeks 21-24, n=27) was 8 (5) % and the “Days with help falling asleep, Week 24 Mean (SE)” value ([4]; weeks 21-24, n=27) was 15 (6) %. For the same compound, the “Days with soothing, Week 24 Mean (SE)” value ([4]; weeks 21-24, n=27) was 16 (5) %, the “Daytime tiredness, Week 24 Mean (SE)” value ([4]; weeks 21-24, n=28, scale 0-4) was 1.0 (0.2) and the “TEAEs that led to study discontinuation” value [5] was “No patient”. The “patients reporting drug-related diarrhea” value ([5]; 6 of 52) was 12%, the “patients reporting drug-related TEAEs” value ([5]; 15 of 52) was 29% and the “patients reporting TEAEs” value ([5]; 43 of 52) was 83%. For the same compound, the “Any TEAE” value ([5]; n=52) was 43 (83) n (%), the “Drug-related TEAE: Abdominal pain” value ([5]; n=52) was 2 (4) n (%) and the “Drug-related TEAE: Abdominal pain upper” value ([5]; n=52) was 2 (4) n (%). For the same compound, the “Drug-related TEAE: Diarrhea” value ([5]; n=52) was 6 (12) n (%), the “Drug-related TEAE: Vomiting” value ([5]; n=52) was 2 (4) n (%) and the “Drug-related TEAEs” value ([5]; n=52) was 15 (29) n (%). For the same compound, the “Drug-related serious TEAEs” value ([5]; n=52) was 1 (2) n (%), the “Serious TEAEs” value ([5]; n=52) was 6 (12) n (%) and the “Severe TEAEs” value ([5]; n=52) was 7 (14) n (%). The tolerability ([5]; up to 36 weeks) was “generally well tolerated”, the “effect on sBAs, itch, and sleep disturbance” value (patients with ALGS) was “reduced sBAs, itch, and sleep disturbance in a majority of those patients” and the “mean BA level” value ([6]; average of weeks 20 and 24) was 145 µmol/L. For the same compound, the “mean BA level” value ([6]; baseline, before odevixibat) was 246 µmol/L, the “mean p-C4 levels following treatment” value ([6]; up to 36 weeks) was “approached normal levels” and the “mean BA level” value ([6]; week 4) was 116 µmol/L. The “mean BA level” value ([6]; week 36) was 116 µmol/L and the “patients achieving a pruritus reduction ≥1-point from baseline” value [7] was 70%.
